According to PMC10709440, “High-throughput ligand profile characterization in novel cell lines expressing seven heterologous insect olfactory receptors for the detection of volatile plant biomarkers” (Scientific Reports, 2023):
Like-named read-outs stand apart in the source and are kept apart here.

Assays:
[1] = biological target: T1, Drosophila OR98a (Drosophila melanogaster, UniProt Q9VAZ3); experiment: Calcium ion fluorescence (GCaMP6) assay, OR98a stable HEK293 cell line; assay type: cell-based; details: for OR98a response (VUAA1-normalized) at 1 μM / OR98a response (VUAA1-normalized) at 10 μM / OR98a response (VUAA1-normalized) at 100 μM: OR98a cell line; for OR98a response (VUAA1-normalized) at 1 μM: VOC concentration 1 μM; for OR98a response (VUAA1-normalized) at 10 μM: VOC concentration 10 μM; for OR98a response (VUAA1-normalized) at 100 μM: VOC concentration 100 μM
T1 construct: expressed in transfected cells
T1 sequence (Q9VAZ3 1-397): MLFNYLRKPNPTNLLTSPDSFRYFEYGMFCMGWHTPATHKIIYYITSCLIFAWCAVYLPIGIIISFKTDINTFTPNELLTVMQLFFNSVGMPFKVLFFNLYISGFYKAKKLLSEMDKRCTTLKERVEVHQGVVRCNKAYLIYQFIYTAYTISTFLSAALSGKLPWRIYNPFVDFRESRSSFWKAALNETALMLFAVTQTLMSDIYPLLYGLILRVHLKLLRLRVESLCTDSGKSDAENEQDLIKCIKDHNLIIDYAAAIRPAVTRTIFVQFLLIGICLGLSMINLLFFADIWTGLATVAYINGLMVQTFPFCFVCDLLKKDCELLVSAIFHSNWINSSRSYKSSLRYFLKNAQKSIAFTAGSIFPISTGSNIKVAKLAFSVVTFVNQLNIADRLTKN
T1 sequence (Q9VNB5 1-486 partner): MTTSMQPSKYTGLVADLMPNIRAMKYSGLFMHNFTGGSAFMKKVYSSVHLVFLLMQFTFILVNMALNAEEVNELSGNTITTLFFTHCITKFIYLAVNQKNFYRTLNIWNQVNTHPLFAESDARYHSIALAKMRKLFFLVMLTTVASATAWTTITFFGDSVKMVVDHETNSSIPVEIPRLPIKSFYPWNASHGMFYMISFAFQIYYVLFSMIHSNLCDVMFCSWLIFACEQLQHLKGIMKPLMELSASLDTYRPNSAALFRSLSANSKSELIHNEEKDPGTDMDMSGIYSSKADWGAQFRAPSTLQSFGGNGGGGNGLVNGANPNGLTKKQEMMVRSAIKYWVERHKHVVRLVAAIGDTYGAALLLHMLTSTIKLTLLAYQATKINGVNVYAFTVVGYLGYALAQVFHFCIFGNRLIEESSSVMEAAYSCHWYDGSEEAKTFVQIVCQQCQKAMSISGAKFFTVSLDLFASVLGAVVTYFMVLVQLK
Experimental: (§1) These VUAA1 normalized ∆F values were used to compare the different receptors and ligands.
(§2) The concentration-dependent effect of the reference ligands on their cognate cell lines was examined in more detail. Twelve different ligand concentrations were measured on each cell line in an overall 0.01 μM to 100 μM concentration range with 5 repetitions with three technical replicates each time.
(§3) Twelve thousand to 18,000 cells were plated into each well of a black wall, transparent bottom 384-well microplate (Greiner) 48 h or 72 h before the measurements and were simultaneously treated with 1 μg/mL doxycycline. […] The plate has 24 columns, thus we could record responses in up to eight different cell lines in each plate. On the day of the experiment, the growth medium was replaced with 20 µL assay buffer/well (140 mM NaCl, 5 mM KCl, 2 mM CaCl2, 1 mM MgCl2, 5 mM HEPES-Na, 20 mM glucose, pH 7.3, 340 mOsm). […] Baseline fluorescence (F0) was recorded for 5 s, after which 7 µL VOC buffer (140 mM NaCl, 5 mM KCl, 2 mM CaCl2, 1 mM MgCl2, 5 mM HEPES-Na, 31 mM glucose, 0.1% DMSO, pH 7.3, 340 mOsm) was injected into each well in one row and the fluorescence response was recorded for an additional 30 s, at a rate of one read/sec. VOC solutions (VOC buffer with 4× concentration of the final measured VOC concentration, 9 µL/well was injected) were measured on the same wells in a second round with the same protocol. Each individual concentration of a specific VOC sample was recorded in three wells for the same cell line on the same microplate. The raw data were exported in xls file format, F0 and FMAX values, and the fluorescence intensity changes (∆F) were calculated in Excel (Microsoft) (Supplementary file Data summary.xlsx) using the following equation: ΔF=FMAX-F0/F0 (see also Fig. 1C). On each plate, we recorded the response of each cell line to 50 µM VUAA1. The average of these ∆F values of each cell line were used to calculate the VUAA1-normalized values for the rest of the plate, by dividing VOC response ∆F values by the average VUAA1 response ∆F value of the corresponding OR cell line. Each VOC-OR combination was measured three times as technical replicates. […] The average of these replicates were used as one ∆F and VUAA1-normalized ∆F in the following analysis.
(§4) In the next rows we tested the reference VOCs (or other VOCs known to activate the corresponding cell lines), in order to test if all cell lines are responsive. The remaining rows were used to test VOCs with unknown effect.
(§5) The recorded FMAX, F0, ∆F, VUAA1-normalized ∆F values, as well as the OR name, the name of the tested sample, and the final concentration for each well were copied into supplementary file Data summary.xlsx, that was used to summarize all the plates recorded. Here, the averages of the measurements were calculated for each receptor-VOC-concentration combination.

[2] = biological target: T2, Drosophila OR47a (Drosophila melanogaster, UniProt P81921); experiment: Calcium ion fluorescence (GCaMP6) assay, OR47a stable HEK293 cell line; assay type: cell-based; details: for OR47a response (VUAA1-normalized) at 1 μM / OR47a response (VUAA1-normalized) at 10 μM / OR47a response (VUAA1-normalized) at 100 μM / Average response: OR47a cell line; for OR47a response (VUAA1-normalized) at 1 μM: VOC concentration 1 μM; for OR47a response (VUAA1-normalized) at 10 μM: VOC concentration 10 μM; for OR47a response (VUAA1-normalized) at 100 μM: VOC concentration 100 μM; for Average response: mean of biological replicates
T2 construct: expressed in transfected cells
T2 sequence (P81921 1-385): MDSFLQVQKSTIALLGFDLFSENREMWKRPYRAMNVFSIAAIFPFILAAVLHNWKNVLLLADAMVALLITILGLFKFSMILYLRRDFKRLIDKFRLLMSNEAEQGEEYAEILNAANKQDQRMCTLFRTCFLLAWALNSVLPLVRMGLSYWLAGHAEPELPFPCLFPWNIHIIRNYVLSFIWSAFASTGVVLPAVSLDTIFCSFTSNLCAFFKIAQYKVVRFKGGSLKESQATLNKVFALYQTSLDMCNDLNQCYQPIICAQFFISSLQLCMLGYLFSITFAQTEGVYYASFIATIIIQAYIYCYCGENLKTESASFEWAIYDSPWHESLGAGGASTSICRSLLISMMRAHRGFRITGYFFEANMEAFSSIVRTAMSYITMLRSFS
T2 sequence (Q9VNB5 1-486 partner): T1 sequence (Q9VNB5 1-486 partner)
Experimental: as §1, §2, §3, §4, §5

[3] = HEK293, read-out: Average response
[4] = HEK293, read-out: OR98a Average response (VUAA1-normalized)
[5] = ligand concentration 1 (unit not given), threshold 0.05, below shown as 0
[6] = ligand concentration 10 (unit not given), threshold 0.05, below shown as 0
[7] = ligand concentration 100 (unit not given), threshold 0.05, below shown as 0
[8] = HEK293, read-out: OR47a Average response (VUAA1-normalized)
[9] = HEK293, read-out: OR98a response (VUAA1-normalized response)
[10] = concentration 1, normalized fluorescence change, values below 0.05 threshold given as 0
[11] = concentration 10, normalized fluorescence change, values below 0.05 threshold given as 0
[12] = concentration 100, normalized fluorescence change, values below 0.05 threshold given as 0
[13] = HEK293, read-out: OR47a response (VUAA1-normalized response)
[14] = ligand concentration 1 (unit not given), 0.05 threshold, values below shown as 0
[15] = ligand concentration 10 (unit not given), 0.05 threshold, values below shown as 0
[16] = ligand concentration 100 (unit not given), 0.05 threshold, values below shown as 0

Compound	activation at 1 µM [1, 3]	activation at 10 µM [1, 3]	activation at 100 µM [1, 3]	OR98a response (VUAA1-normalized) at 1 μM [1]	OR98a response (VUAA1-normalized) at 10 μM [1]	OR98a response (VUAA1-normalized) at 100 μM [1]	OR47a response (VUAA1-normalized) at 1 μM [2]	OR47a response (VUAA1-normalized) at 10 μM [2]	OR47a response (VUAA1-normalized) at 100 μM [2]	Average response ([2]; odorant cc. 1 µM)	Average response ([2]; odorant cc. 10 µM)	Average response ([2]; odorant cc. 100 µM)	other results
CCCOC(C)=O [propyl acetate]	10%	8%	11%	0.10	0.08	0.11	0.00	0.09	0.33	0.00	0.09	0.33	activation at 1 µM [1, 4]: 10%; activation at 10 µM [1, 4]: 8%; activation at 100 µM [1, 4]: 11%; DF norm AVERAGE OR98a [1, 5]: 0.09538; DF norm AVERAGE OR98a [1, 6]: 0.07848; DF norm AVERAGE OR98a [1, 7]: 0.1069; activation at 1 µM [2, 8]: 0%; activation at 10 µM [2, 8]: 9%; activation at 100 µM [2, 8]: 33%; DF norm AVERAGE OR47a [2, 5]: 0; DF norm AVERAGE OR47a [2, 6]: 0.0896; DF norm AVERAGE OR47a [2, 7]: 0.3345
CCCCCCCCC(CO)CCCCCC (stereo not drawn) [2-hexyl-1-decanol]	0%	14%	2%							0.00	0.05	0.00	activation at 1 µM [1, 9]: 0%; activation at 10 µM [1, 9]: 14%; activation at 100 µM [1, 9]: 0%; DF norm AVERAGE OR98a [1, 10]: 0; DF norm AVERAGE OR98a [1, 11]: 0.1367; DF norm AVERAGE OR98a [1, 12]: 0; activation at 1 µM [2, 13]: 0%; activation at 10 µM [2, 13]: 0%; activation at 100 µM [2, 13]: 0%; DF norm AVERAGE OR47a [2, 10]: 0; DF norm AVERAGE OR47a [2, 11]: 0; DF norm AVERAGE OR47a [2, 12]: 0
CC1=CCC23CC1C(C)(C)C2CCC3C (stereo not drawn) [α-funebrene]	0%	9%	5%	0.00	0.09	0.05	0.00	0.00	0.00	0.00	0.00	0.00	DF norm AVERAGE OR98a [1, 14]: 0; DF norm AVERAGE OR98a [1, 15]: 0.08582; DF norm AVERAGE OR98a [1, 16]: 0.05199; DF norm AVERAGE OR47a [2, 14]: 0; DF norm AVERAGE OR47a [2, 15]: 0; DF norm AVERAGE OR47a [2, 16]: 0
